Assay results published in article PMC7988117, “OMN6 a novel bioengineered peptide for the treatment of multidrug resistant Gram negative bacteria” (Scientific Reports, 2021).
Ends that are not written are not given here.

Key:
Proteinase-K = molecular target: T1, Proteinase-K (Parengyodontium album, UniProt P06873); experiment: Peptide stability to Proteinase-K (SDS-PAGE); assay type: in vitro ADME; conditions: 10 µg peptide with 5 or 20 ng Proteinase-K (0.16 or 0.66 µg/mL), 2 h, 37 °C; 15% acrylamide SDS-PAGE, Coomassie stain
T1 construct: purchased Sigma-Aldrich
T1 sequence (P06873 106-384): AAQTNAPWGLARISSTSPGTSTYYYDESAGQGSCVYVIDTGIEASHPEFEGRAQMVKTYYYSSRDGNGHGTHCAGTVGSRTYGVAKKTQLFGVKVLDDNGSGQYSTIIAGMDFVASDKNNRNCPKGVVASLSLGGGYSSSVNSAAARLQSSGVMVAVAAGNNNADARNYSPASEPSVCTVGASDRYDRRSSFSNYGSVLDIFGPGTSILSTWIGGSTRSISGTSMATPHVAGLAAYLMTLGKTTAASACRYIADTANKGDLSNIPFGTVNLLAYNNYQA
Experimental: 10 µg of synthetic cecropin A (Genscript, Piscataway, NJ, USA), OMN6, or bovine serum albumin (BSA; Sigma-Aldrich, St. Louis, MO, USA) were incubated with 5 or 20 ng Proteinase-K (Sigma-Aldrich; final treatment concentration of 0.16 or 0.66 µg/mL respectively) for 2 h at 37 °C, and separated on a 15% acrylamide gel (Bio-Rad, Hercules, CA, USA) by SDS-PAGE. The gel was then stained with Coomassie dye and excess color was removed over-night.

HEK293T cells = assay type: cell-based
Experimental: HEK-293T17 cells (ATCC CRL-1573) were purchased from ATCC and cultured to 80% confluency according to the ATCC culture method, using high-glucose and L-Glutamine Dulbecco's Modified Eagle Medium (DMEM) medium (ATCC catalog number 30-2002) supplemented with 10% fetal bovine serum and 1% Penicillin–Streptomycin solution (all from Biological Industries). For the experiment purposes, 30,000 cells were transferred to a 96-well plate (experiment plate) in a final volume of 100 µL of medium. The experiment plate was incubated at 5% CO2 and 37 °C for approximately 18 h. After 18 h, medium was discarded, and cells were co-incubated with OMN6, Melittin (Sigma-Aldrich) or dimethyl sulfoxide (DMSO; MP Biomedical LLC, Solon, OH, USA) that were prepared in new medium at desired concentrations. The experiment plate was incubated at 5% CO2 and 37 °C for 24 h. Then, glutaraldehyde at a final concentration of 0.5% was added in all wells for 10 min for cell fixation. After washing the plate 3 times with DDW, the experiment plate was dried overnight. Then, cells were washed with 0.1 M Borate buffer (pH = 8.5) for 1 min. 100 µL Methylene Blue diluted in the same Borate buffer was added to all wells for 1 h. Wells were washed with DDW and plate was dried overnight. Color extraction was executed by adding 0.1 M HCl. After an incubation at 37 °C for 1 h, cell survival was determined via absorbance at 620 nm using a microplate reader.

Acinetobacter baumannii = experiment: VITEK 2 antimicrobial sensitivity characterization; assay type: cell-based; conditions: VITEK 2 system, CLSI ranges
Experimental: (§1) This experiment was conducted by Omnix Medical, by JMI Laboratories (North Liberty, IA, USA) and by Aptuit (Verona) S.r.l. (Italy), an Evotec Company. All studies were performed according to Clinical and Laboratory Standards Institute guidelines[30] for the application of the broth microdilution method. Reference strains from American Type Culture Collection (ATCC) and clinical isolates from the Evotec EvostrAIn and the JMI Laboratories SENTRY surveillance program culture collections (Acinetobacter baumannii: ACC 00445, ACC 00527, ACC 00535, ATCC 17978, ATCC 19606, ATCC BAA-1793, ACC 01076, ACC 01077, NCTC 13420, JMI #1088100 and JMI #1001007; Klebsiella pneumoniae: ATCC 43816 and ATCC BAA-1705; Escherichia coli: ACC 01001 and ATCC 25922; Staphylococcus aureus: ATCC 29213, ATCC BAA-44 and ATCC 33591; Bacillus cereus: ATCC 14579; Enterococcus faecalis: ATCC 29212; Enterococcus faecium: ATCC BAA-2319) were used. The antimicrobial activity of OMN6 was determined by 12 serial two-fold dilutions in water of the 100-fold highest compound solution; 1 µL of each well was transferred into 96 microtiter plates (final concentration: 256–0.12 µg/mL). In most strains, same procedure was used to determine the colistin antimicrobial activity (final concentration: 32–0.015 µg/mL). Bacterial strains were sub-cultured on the agar plates and incubated for 18–24 h at 35 ± 2 °C in ambient air. Following incubation, the inoculum was prepared from isolated colonies and adjusted to 0.5 McFarland turbidity standard (1 to 2 × 10^8 colony-forming units/mL) in 0.9% saline. Bacterial suspension was then diluted 1:200 in Muller-Hinton broth (from BD; Becton, Dickinson and Company, Franklin Lakes, NJ, USA) and within 15 min 100 µL/well were dispensed. Growth-control wells and sterility-check wells (uninoculated well) were present in each plate. Plates were incubated for 18–24 h at 35 ± 2 °C in ambient air. […] The antimicrobial activity to other antibiotics on most bacterial strains was determined by Evotec using the antimicrobial sensitive test from the VITEK 2 automated microbiology system (bioMérieux SA, Marcy l'Etoile, France; data presented in Table S1), or by ATCC according to CLSI (Clinical and Laboratory Standards Institute) guidelines[30]
(§2) Table S1. Supplementary information about the resistance pattern of 14 bacterial strains used in the Minimum Inhibitory Concentration study presented in Table 1. The resistance pattern of the different bacterial isolates was characterized by broth microdilution studies (for colistin) or with the VITEK 2 system (for the other antibiotics).

Escherichia coli = experiment: VITEK 2 antimicrobial sensitivity characterization; assay type: cell-based; conditions: VITEK 2 system, CLSI ranges
Experimental: as §1, §2

Klebsiella pneumoniae = experiment: VITEK 2 antimicrobial sensitivity characterization; assay type: cell-based; conditions: VITEK 2 system, CLSI ranges
Experimental: as §1, §2

Staphylococcus aureus = experiment: VITEK 2 antimicrobial sensitivity characterization; assay type: cell-based; conditions: VITEK 2 system, CLSI ranges
Experimental: as §1, §2

A. baumannii BAA-1793 = conditions: determined by ATCC according to CLSI guidelines, ref ATCC; cited from earlier work
Excerpt: Supplement 41598_2021_86155_MOESM1_ESM.docx, table 3: Table S3. Supplementary information about the resistance pattern of the bacterial strain A. baumannii BAA-1793 used in the Minimum Inhibitory Concentration study presented in Table 1.

Row | Compound | Stability after exposure to Proteinase-K (Proteinase-K) | Cytotoxicity on HEK293T cells (HEK293T cells) | VITEK characterization (resistance range) (Acinetobacter baumannii; A. baumannii ACC 00445) | VITEK characterization (resistance range) (Acinetobacter baumannii; A. baumannii ACC 00527) | VITEK characterization (resistance range) (Acinetobacter baumannii; A. baumannii ACC 00535) | VITEK characterization (resistance range) (Acinetobacter baumannii; A. baumannii ACC 01076) | VITEK characterization (resistance range) (Acinetobacter baumannii; A. baumannii ACC 01077) | VITEK characterization (resistance range) (Acinetobacter baumannii; A. baumannii ATCC 17978) | VITEK characterization (resistance range) (Acinetobacter baumannii; A. baumannii ATCC 19606) | VITEK characterization (resistance range) (Acinetobacter baumannii; A. baumannii NCTC 13420) | VITEK characterization (resistance range) (Escherichia coli; E. coli ACC 01001) | VITEK characterization (resistance range) (Escherichia coli; E. coli ATCC 25922) | VITEK characterization (resistance range) (Klebsiella pneumoniae; K. pneumoniae ATCC 43816) | VITEK characterization (resistance range) (Klebsiella pneumoniae; K. pneumoniae ATCC BAA-1705) | VITEK characterization (resistance range) (Staphylococcus aureus; S. aureus ATCC 29213) | VITEK characterization (resistance range) (Staphylococcus aureus; S. aureus ATCC 33591) | Resistance pattern (A. baumannii BAA-1793)
1 | KWKLFKKIEKVGQNIRDGIIKAGPAVAVVGQATQIAK-NH2 [Cecropin A] | major degradation | – | – | – | – | – | – | – | – | – | – | – | – | – | – | – | –
2 | C[S+](C)[O-] [DMSO, dimethyl sulfoxide] | – | > 90% | – | – | – | – | – | – | – | – | – | – | – | – | – | – | –
3 | C[C@@H](O)[C@H]1C(=O)N2C(C(=O)O)=C(SCCN=CN)C[C@H]12 [IMP, imipenem] | – | – | R | R | I | R | R | S | S | I | S | S | S | R | S | R | R
4 | CC(C)(O/N=C(\C(=O)N[C@@H]1C(=O)N2C(C(=O)[O-])=C(C[n+]3ccccc3)CS[C@H]12)c1csc(N)n1)C(=O)O [CAZ, ceftazidime] | – | – | R | R | R | – | – | S | I | – | S | S | S | R | – | – | R
5 | CO/N=C(\C(=O)N[C@@H]1C(=O)N2C(C(=O)O)=C(COC(C)=O)CS[C@H]12)c1csc(N)n1 [CTX, cefotaxime] | – | – | R | R | R | – | – | S | I | – | S | S | S | R | – | – | R
